In article PMC11984586, “A novel spider toxin as a selective antagonist of the Kv1 subfamily of voltage-gated potassium channels through gating modulation” (The Journal of Biological Chemistry, 2025):
Bridge positions count the residues as written; N and C are the ends. Peptide text beside a SMILES is read from it.

Tests used:
[1] = target: T1, Kv1.1/QM (Kv1.1/E283Q_T286M) (Homo sapiens, UniProt Q09470, E283Q/T286M); assay: Whole-cell patch clamp, Kv1.1 double mutant; assay type: cell-based; conditions: +30 mV, mean ± SD, n = 3–5, read-out: IC50, Kv1.1/QM current (full inhibition)
T1 construct: expressed in transfected cells; host or cells: CHO-K1
T1 sequence (Q09470 whole entry E283Q/T286M): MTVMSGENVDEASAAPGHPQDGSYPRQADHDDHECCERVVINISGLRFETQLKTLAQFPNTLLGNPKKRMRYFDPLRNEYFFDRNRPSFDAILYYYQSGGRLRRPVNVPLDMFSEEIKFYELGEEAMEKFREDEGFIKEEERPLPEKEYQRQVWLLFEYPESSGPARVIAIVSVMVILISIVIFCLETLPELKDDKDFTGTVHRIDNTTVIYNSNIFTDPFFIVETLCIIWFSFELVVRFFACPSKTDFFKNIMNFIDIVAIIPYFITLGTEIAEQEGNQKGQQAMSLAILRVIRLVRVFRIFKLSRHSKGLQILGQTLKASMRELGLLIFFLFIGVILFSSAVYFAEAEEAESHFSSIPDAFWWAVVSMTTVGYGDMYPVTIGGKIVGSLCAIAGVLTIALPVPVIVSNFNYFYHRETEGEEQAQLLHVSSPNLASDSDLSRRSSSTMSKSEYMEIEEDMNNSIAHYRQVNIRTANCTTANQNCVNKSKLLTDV
Text: In contrast, differences at positions 347, 355, and 358 between Kv1.3 and Kv1.1 prompted further analysis. To explore whether these discrepancies influence peptide-mediated inhibition, we substituted these residues in Kv1.3 with their homologous counterparts in Kv1.1 and assessed the MrVIII's inhibitory efficacy on these single-point mutants. […] To further investigate this, we introduced double adjacent mutations around Q355 and M358 in Kv1.3 to explore potential synergistic effects on MrVIII's inhibitory activity. […]
(§1) CHO-K1 cells were selected for expressing Kv channels due to their lack of endogenous Kv channels, while HEK293 or ND7/23 cells were used for Nav and Cav channel expression. […] After 4 to 6 h transfection, cells were seeded onto poly-lysine–coated coverslips, and 24 to 36 h later, transfected cells were ready for patch-clamp analysis. […]
For Kv current recordings, the bath solution contained (in mM) the following: 140 NaCl, 5 KCl, 1 MgCl2, 2 CaCl2, 10 glucose, and 10 Hepes (pH 7.3, adjusted with NaOH), and the pipette solution contained (in mM) the following: 140 KCl, 2.5 MgCl2, 11 EGTA, and 10 Hepes (pH 7.3, adjusted with KOH). […] Whole cell conductance (G) at each depolarizing voltage (V) was determined using the equation: G = I/(V−Vrev), where I is the current amplitude, and Vrev is the reversal potential. […]

[2] = target: T2, hKv1.5 (Homo sapiens, UniProt P22460); assay: Whole-cell patch clamp, Kv1.5 ionic current in CHO-K1 cells; assay type: cell-based; conditions: +30 mV, 500 ms, holding −80 mV, mean ± SD, n = 4–7, read-out: IC50, inhibition of Kv1.5 current (full inhibition)
T2 construct: expressed in transfected cells; host or cells: CHO-K1
T2 sequence (P22460 whole entry): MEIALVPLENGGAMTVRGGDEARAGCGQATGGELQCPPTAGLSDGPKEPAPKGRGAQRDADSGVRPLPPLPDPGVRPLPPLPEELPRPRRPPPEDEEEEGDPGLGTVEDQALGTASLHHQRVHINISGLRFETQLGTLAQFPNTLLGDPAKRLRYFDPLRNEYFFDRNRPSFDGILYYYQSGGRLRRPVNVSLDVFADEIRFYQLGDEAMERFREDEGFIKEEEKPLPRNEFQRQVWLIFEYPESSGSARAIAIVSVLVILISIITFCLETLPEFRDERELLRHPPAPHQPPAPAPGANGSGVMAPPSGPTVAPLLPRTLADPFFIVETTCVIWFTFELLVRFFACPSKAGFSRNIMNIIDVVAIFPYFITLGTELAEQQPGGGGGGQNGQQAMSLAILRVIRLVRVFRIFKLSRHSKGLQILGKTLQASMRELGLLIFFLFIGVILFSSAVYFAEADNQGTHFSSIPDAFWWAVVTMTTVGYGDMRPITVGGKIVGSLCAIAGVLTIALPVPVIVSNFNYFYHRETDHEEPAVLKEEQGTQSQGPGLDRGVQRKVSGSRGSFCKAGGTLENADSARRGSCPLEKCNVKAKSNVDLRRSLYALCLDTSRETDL
Procedure: (§2) The cDNA of hKv1.1, hKv1.2, hKv1.3, rKv1.4, hKv1.5, mKv1.6, and hKv1.7 were subcloned into mammalian expression vectors pcDNA3.1 or pCMV-blank vectors, as well as other plasmids described previously ([35]). Channel mutants were generated by site-directed mutations. Briefly, the parental channel plasmid was amplified using a pair of oppositely directed primers harboring the designed mutation site, with KOD Fx (TOYOBO Co, Ltd). The resulting PCR mix was treated with FastDigest DpnI (Thermo Fisher Scientific) to remove the methylated template. Ten microliters of the digested product was then used to transform 100 μl E. coli DH5α competent cells. […]
as §1
(§3) For Kv current recordings, the bath solution contained (in mM) the following: 140 NaCl, 5 KCl, 1 MgCl2, 2 CaCl2, 10 glucose, and 10 Hepes (pH 7.3, adjusted with NaOH), and the pipette solution contained (in mM) the following: 140 KCl, 2.5 MgCl2, 11 EGTA, and 10 Hepes (pH 7.3, adjusted with KOH). […] The steady-state fast inactivation of Kv1.3 was measured using a two-pulses protocol. […]

[3] = target: T3, rKv1.4 (Rattus norvegicus, UniProt P15385); assay: Whole-cell patch clamp, Kv1.4 ionic current in CHO-K1 cells; assay type: cell-based
T3 construct: expressed in transfected cells; host or cells: CHO-K1
T3 sequence (P15385 whole entry): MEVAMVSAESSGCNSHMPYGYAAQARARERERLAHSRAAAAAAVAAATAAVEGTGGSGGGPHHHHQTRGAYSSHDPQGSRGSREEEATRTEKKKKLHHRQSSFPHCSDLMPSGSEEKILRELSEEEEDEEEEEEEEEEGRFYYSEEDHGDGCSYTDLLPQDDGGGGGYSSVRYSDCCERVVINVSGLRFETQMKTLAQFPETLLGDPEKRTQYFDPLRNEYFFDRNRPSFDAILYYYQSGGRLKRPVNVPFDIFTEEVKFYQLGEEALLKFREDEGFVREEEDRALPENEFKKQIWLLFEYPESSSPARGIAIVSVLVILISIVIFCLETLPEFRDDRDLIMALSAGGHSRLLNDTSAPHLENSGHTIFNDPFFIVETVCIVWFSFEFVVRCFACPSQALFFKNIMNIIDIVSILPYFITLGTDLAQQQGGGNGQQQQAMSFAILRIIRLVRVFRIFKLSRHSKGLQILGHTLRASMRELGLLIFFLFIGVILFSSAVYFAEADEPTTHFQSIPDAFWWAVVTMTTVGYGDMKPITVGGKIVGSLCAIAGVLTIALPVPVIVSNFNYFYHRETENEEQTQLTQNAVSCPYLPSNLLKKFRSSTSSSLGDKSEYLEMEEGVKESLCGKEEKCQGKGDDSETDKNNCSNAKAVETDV
Procedure: as §2, §1, §3

[4] = system: hERG; assay: Selectivity patch clamp, non-Kv1 channels; assay type: cell-based, human; conditions: 10 μM MrVIII; n = 3–5
Procedure: CHO-K1 cells were selected for expressing Kv channels due to their lack of endogenous Kv channels, while HEK293 or ND7/23 cells were used for Nav and Cav channel expression. CHO-K1 cells were cultured in a Dulbecco's modified Eagle's medium/Ham's F-12 nutrient mixture (DMEM-F12) medium, and HEK293T and ND7/23 cells in DMEM medium, all supplemented with 10% fetal bovine serum and 1% penicillin-streptomycin (all from Gibco, Thermo Fisher Scientific, Inc) under standard conditions (37 °C, 5% CO2, and saturated humidity). These cell lines were purchased from Stem Cell Bank, Chinese Academy of Sciences. […] After 4 to 6 h transfection, cells were seeded onto poly-lysine–coated coverslips, and 24 to 36 h later, transfected cells were ready for patch-clamp analysis. […]
For Kv current recordings, the bath solution contained (in mM) the following: 140 NaCl, 5 KCl, 1 MgCl2, 2 CaCl2, 10 glucose, and 10 Hepes (pH 7.3, adjusted with NaOH), and the pipette solution contained (in mM) the following: 140 KCl, 2.5 MgCl2, 11 EGTA, and 10 Hepes (pH 7.3, adjusted with KOH). […] Whole cell conductance (G) at each depolarizing voltage (V) was determined using the equation: G = I/(V−Vrev), where I is the current amplitude, and Vrev is the reversal potential. […] The steady-state fast inactivation of Kv1.3 was measured using a two-pulses protocol. […]

For `CC[C@H](C)[C@@H]1NC(=O)[C@H](Cc2ccc(O)cc2)NC(=O)[C@H](CCC(N)=O)NC(=O)[C@@H]2CCCN2C(=O)[C@@H]2CSSC[C@H](NC(=O)[C@H](C)NC(=O)[C@H](CO)NC(=O)[C@H](CCC(=O)O)NC(=O)[C@H](CCC(=O)O)NC(=O)[C@@H](N)[C@@H](C)O)C(=O)NCC(=O)NCC(=O)N[C@@H](Cc3ccccc3)C(=O)N[C@@H](CC(N)=O)C(=O)N[C@@H](C)C(=O)N[C@@H](CCCNC(=N)N)C(=O)N[C@H]3CSSC[C@H](NC1=O)C(=O)N[C@@H](CCCCN)C(=O)NCC(=O)N[C@@H](Cc1c[nH]c4ccccc14)C(=O)N[C@@H](CCCNC(=N)N)C(=O)N[C@@H]([C@@H](C)O)C(=O)N[C@@H](CCCCN)C(=O)N[C@@H](CCCNC(=N)N)C(=O)N[C@H](C(=O)N[C@@H](CC(C)C)C(=O)N[C@@H](CC(N)=O)C(=O)N1CCC[C@H]1C(=O)O)CSSC[C@H](NC(=O)[C@H](CCCCN)NC(=O)[C@H](Cc1c[nH]cn1)NC(=O)[C@H](CC(C)C)NC(=O)[C@@H]1CCCN1C3=O)C(=O)N2` [MrVIII] (H-TEESACGGFNARCPLHKCCPQYICKGWRTKRCLNP-OH; disulfide 6-19, 13-24, 18-32; N-terminus and C-terminus assumed), the IC50 [1] was 7.7 ± 5.3 nM, the IC50 [2] was 5.7 ± 2.2 nM and the IC50 ([3]; current measured at 50 ms of a 500 ms depolarization to +30 mV, mean ± SD, n = 4–7, SD) was 62.7 ± 56.9 nM. The “enhancement of the 495 ms current of Kv1.4” value ([3]; in the presence of MrVIII (10 μM saturating), +30 mV, 495 ms) was 3.9 fold and the “inhibition of hERG current” value [4] was “did not remarkably inhibit”.
